Data published in PMC6171417, “Carbonic anhydrase inhibition with a series of novel benzenesulfonamide-triazole conjugates” (Journal of Enzyme Inhibition and Medicinal Chemistry, 2018).

Assays:
Test in all cases: stopped-flow CO2 hydrase assay
Assay type in all cases: biochemical
hCA IV = target: T1, hCA IV (Homo sapiens, UniProt P22748)
T1 construct: gene CA4; recombinant, obtained in-house as reported earlier
Description: stopped-flow CO2 hydrase assay on hCA IV

hCA IX = target: T2, hCA IX (Homo sapiens, UniProt Q16790)
T2 construct: gene CA9; recombinant, obtained in-house as reported earlier
Description: stopped-flow CO2 hydrase assay on hCA IX

hCA I = target: T3, hCA I (Homo sapiens, UniProt P00915)
T3 construct: gene CA1; recombinant, obtained in-house as reported earlier; cytosolic
Description: stopped-flow CO2 hydrase assay on hCA I

hCA II = target: T4, hCA II (Homo sapiens, UniProt P00918)
T4 construct: gene CA2; recombinant, obtained in-house as reported earlier; cytosolic
Description: stopped-flow CO2 hydrase assay on hCA II

T1 sequence (P22748 19-284): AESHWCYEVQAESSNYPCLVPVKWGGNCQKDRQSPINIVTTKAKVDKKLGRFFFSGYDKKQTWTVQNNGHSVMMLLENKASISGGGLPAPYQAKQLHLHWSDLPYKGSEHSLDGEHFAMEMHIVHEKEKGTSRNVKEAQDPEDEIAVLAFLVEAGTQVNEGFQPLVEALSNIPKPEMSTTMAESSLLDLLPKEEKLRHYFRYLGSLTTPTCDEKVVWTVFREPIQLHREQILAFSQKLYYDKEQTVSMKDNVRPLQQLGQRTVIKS
T3 sequence (P00915 2-261): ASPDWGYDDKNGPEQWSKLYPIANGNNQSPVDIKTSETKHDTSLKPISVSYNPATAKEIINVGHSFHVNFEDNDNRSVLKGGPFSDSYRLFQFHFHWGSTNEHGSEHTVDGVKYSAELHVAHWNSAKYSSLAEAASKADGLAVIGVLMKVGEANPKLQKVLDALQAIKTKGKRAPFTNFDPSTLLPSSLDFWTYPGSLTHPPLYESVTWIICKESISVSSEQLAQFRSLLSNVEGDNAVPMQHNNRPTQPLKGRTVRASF

Row | Structure (SMILES) | Ki (hCA IV) [nM] | Ki (hCA IX) [nM] | Ki (hCA I) [nM] | Ki (hCA II) [nM]
1 | [N-]=[N+]=Nc1ccc(S(N)(=O)=O)cc1 [compound 2, 4-azido benzenesulfonamide] | > 10000 | 235 | – | –
2 | N#Cc1nnn(-c2ccc(S(N)(=O)=O)cc2)c1N [compound 3, 4-(5-amino-4-cyano-1H-1,2,3-triazol-1-yl)benzenesulfonamide] | 2270 | 118 | 1940 | 16.7
3 | Nc1c(C2=NCCN2)nnn1-c1ccc(S(N)(=O)=O)cc1 [compound 4, 4-(5-amino-4-(4,5-dihydro-1H-imidazol-2-yl)-1H-1,2,3-triazol-1-yl)benzenesulfonamide] | 3190 | 3710 | 9940 | 6840
4 | N#Cc1nnn(-c2ccc(S(N)(=O)=O)cc2)c1NC(=O)CCl [compound 5, 2-chloro-N-(4-cyano-1-(4-sulfamoylphenyl)-1H-1,2,3-triazol-5-yl)acetamide] | 1200 | 454 | 2550 | 518
5 | CC(=O)CC(=O)Nc1c(C#N)nnn1-c1ccc(S(N)(=O)=O)cc1 [compound 6, N-(4-cyano-1-(4-sulfamoylphenyl)-1H-1,2,3-triazol-5-yl)-3-oxobutanamide] | 472 | 410 | 2860 | 684
6 | N#Cc1nnn(-c2ccc(S(N)(=O)=O)cc2)c1NCC(=O)c1ccccc1 [compound 7, 4-(4-cyano-5-((2-oxo-2-phenylethyl)amino)-1H-1,2,3-triazol-1-yl)benzenesulfonamide] | 745 | 283 | 1790 | 562
7 | N#Cc1nnn(-c2ccc(S(N)(=O)=O)cc2)c1/N=C/c1ccccc1Cl [compound 8, (E)-4-(5-((2-chlorobenzylidene)amino)-4-cyano-1H-1,2,3-triazol-1-yl)-benzenesulfonamide] | > 10000 | 1770 | 5140 | 6130
8 | N#Cc1nnn(-c2ccc(S(N)(=O)=O)cc2)c1/N=C/c1ccc(Cl)cc1 [compound 9, (E)-4-(5-((4-chlorobenzylidene)amino)-4-cyano-1H-1,2,3-triazol-1-yl) benzenesulfonamide] | 4670 | 307 | 1600 | 94.5
9 | CN(C)c1ccc(/C=N/c2c(C#N)nnn2-c2ccc(S(N)(=O)=O)cc2)cc1 [compound 10, (E)-4-(4-cyano-5-((4-(dimethylamino)benzylidene)amino)-1H-1,2,3-triazol-1-yl)benzenesulfonamide] | 3410 | 451 | 2920 | 179
10 | Cc1ccc(S(=O)(=O)Nc2c(C#N)nnn2-c2ccc(S(N)(=O)=O)cc2)cc1 [compound 12, N-(4-cyano-1-(4-sulfamoylphenyl)-1H-1,2,3-triazol-5-yl)-4-methylbenzenesulfonamide] | 2610 | 105 | 8100 | 90.1

Now from value to compound:

Row | Ki (hCA IV) [nM] | Ki (hCA IX) [nM] | Ki (hCA I) [nM] | Ki (hCA II) [nM] | Structure (SMILES)
11 | 167 | 287 | 790 | 957 | N#Cc1c(N)c2nnn(-c3ccc(S(N)(=O)=O)cc3)c2[nH]c1=O [compound 13, 4-(7-amino-6-cyano-5-oxo-4,5-dihydro-3H-[1,2,3]triazolo[4,5-b]pyridin-3-yl) benzenesulfonamide]
12 | 676 | 46.4 | 1250 | 57 | N#Cc1c(-c2ccccc2)nc2c(nnn2-c2ccc(S(N)(=O)=O)cc2)c1N [compound 14, 4-(7-amino-6-cyano-5-phenyl-3H-[1,2,3]triazolo[4,5-b]pyridin-3-yl)benzenesulfonamide]
13 | 2580 | 407 | 2690 | 230 | N#Cc1c(-c2ccccc2Cl)nc2c(nnn2-c2ccc(S(N)(=O)=O)cc2)c1N [compound 15, 4-(7-amino-5-(2-chlorophenyl)-6-cyano-3H-[1,2,3]triazolo[4,5-b]pyridin-3-yl)benzenesulfonamide]
14 | 2270 | 158 | 2800 | 589 | N=c1c2nnn(-c3ccc(S(N)(=O)=O)cc3)c2[nH]c(=O)n1-c1ccccc1 [compound 19, 4-(7-imino-5-oxo-6-phenyl-4,5,6,7-tetrahydro-3H-[1,2,3]triazolo[4,5-d]pyrimidin-3-yl)benzenesulfonamide]
15 | 5030 | 3810 | 5840 | 2370 | N=c1c2nnn(-c3ccc(S(N)(=O)=O)cc3)c2[nH]c(=S)n1-c1ccc(S(=O)(=O)Nc2cnc3ccccc3n2)cc1 [compound 21]
